Data reported in patent US8653064B2, “Crystalline forms of sodium 4-{[9-chloro-7-(2-fluoro-6-methoxyphenyl)-5H-pyrimido[5,4-D][2]benzazepin-2-yl]amino}-2-methoxybenzoate” (Millennium Pharmaceuticals, Inc., priority 2010, dated 2014).

Tests used:
Solubility in water = assay type: physicochemical
[1] = Gravimetric vapor sorption (GVS); assay type: physicochemical; conditions: between 0-90% RH, 10% RH intervals, 25° C.

In the case of `COc1cc(Nc2ncc3c(n2)-c2ccc(Cl)cc2C(c2c(F)cccc2OC)=NC3)ccc1C(=O)O` [Form 2, sodium 4-{[9-chloro-7-(2-fluoro-6-methoxyphenyl)-5H-pyrimido[5,4-d][2]benzazepin-2-yl]amino}-2-methoxybenzoate Form 2], the solubility in water (Solubility in water) is reported as “about 8 mg/mL”.
In the case of `COc1cc(Nc2ncc3c(n2)-c2ccc(Cl)cc2C(c2c(F)cccc2OC)=NC3)ccc1C(=O)O` [Form 6, sodium 4-{[9-chloro-7-(2-fluoro-6-methoxyphenyl)-5H-pyrimido[5,4-d][2]benzazepin-2-yl]amino}-2-methoxybenzoate Form 6], the solubility in water (Solubility in water) is reported as “greater than 10 mg/mL” and the “uptake (change in weight of the sample) in GVS” value [1] is reported as 6%.
With `COc1cc(Nc2ncc3c(n2)-c2ccc(Cl)cc2C(c2c(F)cccc2OC)=NC3)ccc1C(=O)O` [Form 24, sodium 4-{[9-chloro-7-(2-fluoro-6-methoxyphenyl)-5H-pyrimido[5,4-d][2]benzazepin-2-yl]amino}-2-methoxybenzoate Form 24] the solubility in water (Solubility in water) was “about 8 mg/mL”.
With `COc1cc(Nc2ncc3c(n2)-c2ccc(Cl)cc2C(c2c(F)cccc2OC)=NC3)ccc1C(=O)O` [free acid, 4-{[9-chloro-7-(2-fluoro-6-methoxyphenyl)-5H-pyrimido[5,4-d][2]benzazepin-2-yl]amino}-2-methoxybenzoic acid] the solubility in water (Solubility in water) was “about 10 μg/mL”.
